Results: PubChem BioAssay (NCI)
Values joined by “and” are separate entries in the source; they are usually repeats but may differ in a detail not shown here. Equal entries are not always repeated.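 A five-concentration, 48-hour dose response in 96-well plates underlies each endpoint, interpolated linearly between surrounding concentrations. GI50 = concentration required for 50% inhibition of growth. TGI marks complete inhibition of growth.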

Key:
Experiment in all cases: DTP human tumour cell line panel, 48 h
[1] = system: DMS 114 small cell lung
[2] = system: SF-539 CNS
[3] = system: TK-10 renal
[4] = system: PC-3 prostate
[5] = system: KM20L2 colon
[6] = system: HL-60(TB) leukemia
[7] = system: RPMI-8226 leukemia
[8] = system: MDA-MB-435
[9] = system: UO-31 renal
[10] = system: OVCAR-3 ovarian

Row | SMILES | TGI [1] [µM] | GI50 [2] [µM] | GI50 [3] [µM] | TGI [3] | GI50 [4] [µM] | TGI [4] | TGI [5] | GI50 [6] [µM] | GI50 [7] [µM] | TGI [7] | GI50 [8] [µM] | GI50 [9] [µM] | TGI [9] | GI50 [1] [µM] | TGI [2] | GI50 [5] [µM] | TGI [6] | GI50 [10] [µM] | TGI [10] [µM]
1 | CN(C)CCCN1c2ccccc2Sc2ccc(C(F)(F)F)cc21 | 34 | 1.83 | 1.77 | 3.24 µM and 28.8 µM and 31.6 µM | 1.67 | 4 µM and 28.6 µM | 23.7 µM | 1.82 | 2.03 | 6.06 µM and 35.7 µM and 45.4 µM | 1.6 | 1.48 | 5.38 µM and 28.3 µM and 28.9 µM | – | – | – | – | – | –
2 | CC1[C@@]2(CCC(C)(C)O2)O[C@@H]2C=C3C4CCC5Cc6nc7c(nc6C[C@@]5(C)C4C[C@H](O)[C@@]3(C)[C@]12O)CC1CCC2C3=C[C@H]4O[C@@]5(O[C@@](C)(CO)C[C@@H]5O)C(C)[C@@]4(O)[C@]3(C)[C@@H](O)CC2[C@]1(C)C7 (stereo partly specified) | – | 0.00303 | – | 0.981 µM | – | – | 0.478 µM and 0.089 µM | < 0.000365 | – | 0.032 µM | – | – | 0.114 µM | 0.000805 | 0.0418 µM and 0.0415 µM | 0.00289 | 0.331 µM and 0.0465 µM | 0.435 | 1.11
3 | Cc1ccc(C)c2c1C1CCCCC3(OCCCO3)C21O (stereo unspecified) | > 100 | – | – | > 100 µM | – | – | > 100 µM | – | – | > 100 µM | – | – | > 100 µM | – | > 100 µM | – | > 100 µM | – | > 100
4 | N#C/C(=C\c1ccc(O)cc1)C(N)=O | > 100 | – | – | > 100 µM | – | – | > 100 µM | – | – | > 100 µM | – | – | > 100 µM | – | > 100 µM | – | > 100 µM | – | > 100
